In patent US9452980B2, “Substituted benzamides” (Hoffmann-La Roche Inc., priority 2009, dated 2016):
Counter-ions that a name gives are not always drawn. Like-named read-outs stand apart in the source and are kept apart here.

What was measured:
rat TAAR1 = rat TAAR1 (Rattus norvegicus (Rat), UniProt Q923Y9); test: Radioligand binding assay on rat TAAR1; conditions: read-out: Ki (μM) rat
Procedure, shortened: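 Membranes from HEK293 cells stably expressing rat TAAR1, with Kd checked per batch by saturation. Competition with ³H-(S)-4-[(ethyl-phenyl-amino)-methyl]-4,5-dihydro-oxazol-2-ylamine, compounds 10 pM–10 μM in duplicate, 1 hr at 4 °C. Filtration then scintillation counting; nonspecific binding defined with 10 μM unlabeled ligand.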

mouse TAAR1 = mouse TAAR1 (Mus musculus (Mouse), UniProt Q923Y8); test: Radioligand binding assay on mouse TAAR1; conditions: read-out: Ki (μM) mouse
Sequence of mouse TAAR1 (Q923Y8 whole entry): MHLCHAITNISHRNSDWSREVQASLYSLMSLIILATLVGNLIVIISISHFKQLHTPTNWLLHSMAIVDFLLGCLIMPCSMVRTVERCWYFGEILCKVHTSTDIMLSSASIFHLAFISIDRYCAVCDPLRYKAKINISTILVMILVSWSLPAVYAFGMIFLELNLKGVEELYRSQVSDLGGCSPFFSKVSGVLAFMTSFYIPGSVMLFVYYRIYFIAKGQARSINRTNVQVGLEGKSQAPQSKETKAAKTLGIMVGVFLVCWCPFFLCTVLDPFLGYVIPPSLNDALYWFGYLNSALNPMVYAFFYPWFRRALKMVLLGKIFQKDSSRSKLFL
Procedure, shortened: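 Displacement of the tritiated oxazol-2-ylamine radioligand was measured by filtration and scintillation counting after 1 h incubation at 4 °C. Test concentrations ran 10 pM–10 μM in duplicate, with 10 μM cold ligand giving nonspecific binding. The receptor source was membranes of a stable mouse TAAR1 HEK293 line.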

[1] = rat TAAR1, HEK-293 membranes, second value of cell mouse/rat
[2] = mouse TAAR1, HEK-293 membranes, first value of cell mouse/rat

Sequence of rat TAAR1 (Q923Y9 whole entry): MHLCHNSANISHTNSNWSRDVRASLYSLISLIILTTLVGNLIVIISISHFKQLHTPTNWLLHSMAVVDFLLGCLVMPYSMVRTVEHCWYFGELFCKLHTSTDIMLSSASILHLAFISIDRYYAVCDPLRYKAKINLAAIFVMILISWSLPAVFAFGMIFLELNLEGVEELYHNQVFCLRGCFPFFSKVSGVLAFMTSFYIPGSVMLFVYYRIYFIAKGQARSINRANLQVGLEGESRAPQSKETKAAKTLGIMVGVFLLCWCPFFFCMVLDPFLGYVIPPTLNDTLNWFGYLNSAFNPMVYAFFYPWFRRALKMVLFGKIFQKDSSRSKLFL

| Ki (rat TAAR1; [1]) [µM] | Ki (mouse TAAR1; [2]) [µM] | SMILES | Ki (rat TAAR1) [µM] | Ki (mouse TAAR1) [µM] |
| --- | --- | --- | --- | --- |
| 0.0038 | 0.0266 | Cc1ccc(CNC(=O)Nc2ccc(C3CNCCO3)cc2)cc1 (racemic) [Example 306, (RS)-1-(4-Methylbenzyl)-3-(4-(morpholin-2-yl)phenyl)urea hydrochloride] | – | – |
| 0.0305 | 0.0778 | O=C(Nc1ccc(C2CNCCO2)cc1)NC1CCCCC1 (racemic) [Example 307, (RS)-1-cyclohexyl-3-(4-(morpholin-2-yl)phenyl)urea hydrochloride] | – | – |
| 0.0837 | 0.0189 | CN1CCN(c2ccc(NC(=O)Nc3ccc(-c4cnco4)cc3)cc2)CC1 [Example 4, 1-[4-(4-Methyl-piperazin-1-yl)-phenyl]-3-(4-oxazol-5-yl-phenyl)-urea] | – | – |
| 0.0005 | 0.0055 | O=C(Nc1ccc(C2CCNCC2)cc1)c1ccc(Cl)cc1 [Example 57, 4-Chloro-N-(4-piperidin-4-yl-phenyl)-benzamide hydrochloride] | – | – |
| 0.0014 | 0.0256 | O=C(Nc1ccc(N2CCNCC2)cc1)c1ccc(Cl)cc1 [Example 59, 4-Chloro-N-(4-piperazin-1-yl-phenyl)-benzamide hydrochloride] | – | – |
| 0.0018 | 0.211 | O=C(Nc1ccc([C@@H]2CCCNC2)cc1)c1ccc(Cl)cc1 [Example 112, 4-Chloro-N—((S)-4-piperidin-3-yl-phenyl)-benzamide] | – | – |
| 0.004 | 0.0095 | O=C(Nc1ccc([C@H]2CCCNC2)cc1)c1ccc(Cl)cc1 [Example 113, 4-Chloro-N—((R)-4-piperidin-3-yl-phenyl)-benzamide] | – | – |
| – | – | O=C(Nc1ccc([C@@H]2CNCCO2)cc1)c1ccc(Cl)cc1 [Example 143, 4-Chloro-N—((R)-4-morpholin-2-yl-phenyl)-benzamide hydrochloride] | 0.0006 | 0.0054 |
| – | – | O=C(Nc1ccc([C@H]2CNCCO2)cc1)c1ccc(Cl)cc1 [Example 144, 4-Chloro-N—((S)-4-morpholin-2-yl-phenyl)-benzamide hydrochloride] | 0.0011 | 0.0188 |
| 0.0022 | 0.0135 | Cc1ccc(C(=O)Nc2ccc([C@@H]3CNCCO3)cc2)cc1 [Example 195, (R)-4-Methyl-N-(4-(morpholin-2-yl)phenyl)benzamide hydrochloride] | – | – |
| 0.001 | 0.0524 | Cc1ccc(C(=O)Nc2ccc([C@H]3CNCCO3)cc2)cc1 [Example 196, (S)-4-Methyl-N-(4-(morpholin-2-yl)phenyl)benzamide hydrochloride] | – | – |
| 0.0022 | 0.0039 | COc1cc(C(=O)Nc2ccc([C@H]3CCCNC3)cc2)ccc1Cl [Example 200, (R)-4-Chloro-3-methoxy-N-(4-(piperidin-3-yl)phenyl)benzamide hydrochloride] | – | – |
| 0.0022 | 0.113 | COc1cc(C(=O)Nc2ccc([C@@H]3CCCNC3)cc2)ccc1Cl [Example 201, (S)-4-Chloro-3-methoxy-N-(4-(piperidin-3-yl)phenyl)benzamide hydrochloride] | – | – |
| – | – | COc1ccc(C(=O)Nc2ccc([C@H]3CCCNC3)cc2)cc1Cl [Example 202, (R)-3-Chloro-4-methoxy-N-(4-(piperidin-3-yl)phenyl)benzamide hydrochloride] | 0.0015 | 0.0087 |
| – | – | COc1ccc(C(=O)Nc2ccc([C@@H]3CCCNC3)cc2)cc1Cl [Example 203, (S)-3-Chloro-4-methoxy-N-(4-(piperidin-3-yl)phenyl)benzamide hydrochloride] | 0.0014 | 0.0603 |
| 0.0043 | 0.005 | O=C(Nc1ccc([C@H]2CCNC2)cc1)c1ccc(OCC(F)(F)F)nc1 [Example 204, (R)—N-(4-(pyrrolidin-3-yl)phenyl)-6-(2,2,2-trifluoroethoxy)nicotinamide hydrochloride] | – | – |
| 0.0035 | 0.0034 | O=C(Nc1ccc([C@@H]2CCNC2)cc1)c1ccc(OCC(F)(F)F)nc1 [Example 205, (S)—N-(4-(Pyrrolidin-3-yl)phenyl)-6-(2,2,2-trifluoroethoxy)nicotinamide hydrochloride] | – | – |
| – | – | Cc1cc(C(=O)Nc2ccc([C@@H]3CCCNC3)cc2)ccc1Cl [Example 226, (S)-4-Chloro-3-methyl-N-(4-(piperidin-3-yl)phenyl)benzamide hydrochloride] | 0.001 | 0.0555 |
| – | – | O=C(Nc1ccc([C@@H]2CCCNC2)cc1)c1cccc(C(F)(F)F)c1 [Example 234, (S)—N-(4-(Piperidin-3-yl)phenyl)-3-(trifluoromethyl)benzamide hydrochloride] | 0.001 | 0.0217 |
| 0.0014 | 0.214 | CSc1ccc(C(=O)Nc2ccc([C@@H]3CCCNC3)cc2)cc1 [Example 236, (S)-4-(Methylthio)-N-(4-(piperidin-3-yl)phenyl)benzamide hydrochloride] | – | – |
| 0.0008 | 0.0677 | CCSc1ccc(C(=O)Nc2ccc([C@@H]3CCCNC3)cc2)cc1 [Example 237, (S)-4-(Ethylthio)-N-(4-(piperidin-3-yl)phenyl)benzamide hydrochloride] | – | – |

| SMILES | Ki (rat TAAR1; [1]) [µM] | Ki (mouse TAAR1; [2]) [µM] | Ki (rat TAAR1) [µM] | Ki (mouse TAAR1) [µM] |
| --- | --- | --- | --- | --- |
| CSc1ccc(C(=O)Nc2ccc(C3CNCCO3)cc2)cc1 (stereo in doubt) [Example 267, (S)-4-(Methylthio)-N-(4-(morpholin-2-yl)phenyl)benzamide hydrochloride] | – | 0.0476 | 0.0011 | – |
| CN1CCN(c2ccc(NC(=O)Nc3ccc(Cl)c(Cl)c3)cc2)CC1 [Example 2, 1-(3,4-Dichloro-phenyl)-3-[4-(4-methyl-piperazin-1-yl)-phenyl]-urea] | 0.001 | – | – | 0.0006 |
| O=C(Nc1ccc([C@H]2CCCNC2)cc1)c1ccc(Cl)c(Cl)c1 [Example 150, 3,4-Dichloro-N—((R)-4-piperidin-3-yl-phenyl)-benzamide hydrochloride] | 0.0004 | – | – | 0.002 |
| O=C(Nc1ccc([C@H]2CCCNC2)cc1)c1cccc(Cl)c1 [Example 151, (R)-3-Chloro-N-(4-(piperidin-3-yl)phenyl)benzamide hydrochloride] | 0.0008 | – | – | 0.011 |
| O=C(Nc1ccc([C@@H]2CCCNC2)cc1)c1ccc(Cl)c(Cl)c1 [Example 152, 3,4-Dichloro-N—((S)-4-piperidin-3-yl-phenyl)-benzamide hydrochloride] | 0.0003 | – | – | 0.0086 |
| O=C(Nc1ccc([C@@H]2CCCNC2)cc1)c1cccc(Cl)c1 [Example 153, (S)-3-Chloro-N-(4-(piperidin-3-yl)phenyl)benzamide hydrochloride] | 0.0005 | – | – | 0.0715 |
| O=C(Nc1ccc([C@H]2CCCNC2)cc1)c1ccc(Cl)nc1 [Example 161, (R)-6-Chloro-N-(4-(piperidin-3-yl)phenyl)nicotinamide hydrochloride] | 0.0101 | – | – | 0.0403 |
| O=C(Nc1ccc([C@@H]2CCCNC2)cc1)c1ccc(Cl)nc1 [Example 162, (S)-6-Chloro-N-(4-(piperidin-3-yl)phenyl)nicotinamide hydrochloride] | 0.0092 | – | – | 0.231 |
| O=C(Nc1ccc([C@H]2CCCNC2)cc1)c1ccc(Cl)cn1 [Example 167, (R)-5-Chloro-N-(4-(piperidin-3-yl)phenyl)picolinamide hydrochloride] | 0.0048 | – | – | 0.0271 |
| O=C(Nc1ccc([C@@H]2CCCNC2)cc1)c1ccc(Cl)cn1 [Example 168, (S)-5-Chloro-N-(4-(piperidin-3-yl)phenyl)picolinamide hydrochloride] | 0.0026 | – | – | 0.608 |
| O=C(Nc1ccc([C@@H]2CNCCO2)cc1)c1ccc(Cl)nc1 [Example 207, (R)-6-Chloro-N-(4-(morpholin-2-yl)phenyl)nicotinamide hydrochloride] | – | 0.0525 | 0.0042 | – |
| O=C(Nc1ccc([C@H]2CNCCO2)cc1)c1ccc(Cl)nc1 [Example 208, (S)-6-Chloro-N-(4-(morpholin-2-yl)phenyl)nicotinamide hydrochloride] | – | 0.0762 | 0.0044 | – |
| O=C(Nc1ccc([C@H]2CCCNC2)cc1)c1ccc(OCC(F)(F)F)nc1 [Example 223, (R)—N-(4-(Piperidin-3-yl)phenyl)-6-(2,2,2-trifluoroethoxy)nicotinamide hydrochloride] | – | 0.0016 | 0.0018 | – |
| O=C(Nc1ccc([C@@H]2CCCNC2)cc1)c1ccc(OCC(F)(F)F)nc1 [Example 224, (S)—N-(4-(Piperidin-3-yl)phenyl)-6-(2,2,2-trifluoroethoxy)nicotinamide hydrochloride] | – | 0.051 | 0.0029 | – |
| Cc1ccc(C(=O)Nc2ccc([C@@H]3CCCNC3)cc2)cc1Cl [Example 225, (S)-3-Chloro-4-methyl-N-(4-(piperidin-3-yl)phenyl)benzamide hydrochloride] | 0.0006 | – | – | 0.0189 |
| Cc1ccc(C(=O)Nc2ccc([C@@H]3CCCNC3)cc2)cc1C [Example 227, (S)-3,4-Dimethyl-N-(4-(piperidin-3-yl)phenyl)benzamide hydrochloride] | 0.0012 | – | – | 0.177 |
| O=C(Nc1ccc([C@@H]2CNCCO2)cc1)c1ccc(Cl)cc1F [Example 229, (R)-4-Chloro-2-fluoro-N-(4-(morpholin-2-yl)phenyl)benzamide hydrochloride] | 0.0019 | – | – | 0.0218 |
| O=C(COc1ccc(Cl)cc1)Nc1ccc([C@@H]2CCCNC2)cc1 [Example 235, (S)-2-(4-Chlorophenoxy)-N-(4-(piperidin-3-yl)phenyl)acetamide hydrochloride] | 0.0006 | – | – | 0.0334 |
